Source: patent US20080070961A1, “Polymorphs of N-(2-acetyl-4,6-dimethylphenyl)-3-{[(3,4 dimethyl-5-isoxazolyl)-amino]sulfonyl}-2-thiophene-carboxamide” (priority 2006, published 2008)
Converted amounts (≈) assume the structure as drawn. “Also recorded” adds a separate entry of the source.

Key:
[1] = Moisture sorption/desorption; format: physicochemical; conditions: for XRPD Results after the moisture sorption/desorption experiment: sorption 5 to 95% RH, desorption 95 to 5% RH
Procedure: The moisture sorption/desorption data was collected on a VT SGA-100 moisture balance system. For sorption isotherms, a sorption range of 5 to 95% relative humidity (RH) and a desorption range of 95 to 5% RH in 10% RH increments were used for analysis. The sample was not dried prior to analysis. Equilibrium criteria used for analysis was less than 0.0100% weight change in 5 minutes with a maximum equilibration time of 3 hours if the weight criterion was not met. Data was not corrected for the initial moisture content of the samples.

[2] = Stress studies (humidity / temperature, XRPD); format: physicochemical
Procedure: Samples of N-(2-acetyl-4,6-dimethylphenyl)-3-{[(3,4-dimethyl-5-isoxazolyl)amino]-sulfonyl}-2-thiophenecaboxamide were stressed at 22, 58, 75, and 93% RH under ambient temperature for 3 days. One sample was also placed in a 40 ° C. oven for 11 days. Samples of amorphous material were also placed in a 40 ° C. oven for 36 days or in a 70 ° C. oven for 4 days. The solids were then analyzed by XRPD.

[3] = Solubility of Forms A, C and E in ethanol (gravimetric); conditions: for stability of the forms (order, based on the solubility data): ethanol solubility data; for AVERAGE SOLUBILITY / solubility at 30 min / solubility at 60 min / XRPD of remaining solid after the solubility experiment (form conversion) / relative solubility of the forms: ethanol; for solubility at 30 min / solubility at 60 min: organic solvent or mixture, thermodynamic from solid, AVERAGE SOLUBILITY; for XRPD of remaining solid after the solubility experiment (form conversion) / relative solubility of the forms: various temperatures
Procedure: (§1) Saturated solutions of this compound in ethanol were prepared and each solution was heated to either 25, 27, 35, 40 or 50° C.' and stirred for 30 minutes. The samples were filtered into a receiving flask and were heated at the same temperatures and stirred for another 30 minutes. Samples were removed from these flasks and were filtered into a tared vial. The remaining solution was heated and stirred for another 30 minutes. Samples were again removed from these flasks and were filtered into another tared vial. The solvents in the tared vials were removed using a rotary evaporator and the weights of the solids in the tared vials were recorded and were used to calculate solubility.
(§2) The solubilitites reported were determined gravimetrically, therefore, fluctuations in the data are possible.

[4] = Grinding experiments (mortar and pestle, XRPD); format: physicochemical
Procedure: N-(2-acetyl-4,6-dimethylphenyl)-3-{[(3 ,4-dimethyl-5-isoxazolyl)amino]-sulfonyl}-2-thiophenecaboxamide material was ground by hand with a mortar and pestle for 30 sec, 1, 2, and 5 minutes. The samples were then analyzed by XRPD.

[5] = Approximate solubilities of Form A in various solvents at ambient temperature; format: physicochemical; conditions: for solubility: thermodynamic from solid, approximate
Procedure: The approximate solubilities were estimated from experiments based on the total solvent used to give a solution. The actual solubilities may be greater than those calculated because of the use of too-large solvent aliquots or a slow rate of dissolution. […] If the solid dissolved before the whole aliquot of solvent was added the solubility is listed as “greater than”.

[6] = Interconversion experiments (slurries of two forms, XRPD); format: physicochemical
Procedure: Interconversion experiments were carried out by making slurries containing two forms of N-(2-acetyl-4,6-dimethylphenyl)-3 -{[(3,4-dimethyl-5-isoxazolyl)amino]-sulfonyl}-2-thiophenecaboxamide in saturated toluene, methanol/water, or alcohol solutions. The slurries were agitated for various time periods at either ambient temperature or at 45° C. The insoluble solids were recovered by filtration and analyzed using XRPD.

physchem = conditions: organic solvent or mixture, thermodynamic from solid, AVERAGE SOLUBILITY
Procedure: as §1, §2

SMILES: CC(=O)c1cc(C)cc(C)c1NC(=O)c1sccc1S(=O)(=O)Nc1onc(C)c1C [Form A, N-(2-acetyl-4,6-dimethylphenyl)-3-{[(3,4dimethyl-5-isoxazolyl)-amino]sulfonyl}-2-thiophenecarboxamide]
- hygroscopicity (based on moisture sorption/desorption data) [1]: non-hygroscopic
- Moisture Balance Results: weight loss at 5% RH [1]: <0.1% weight loss at 5% RH,
- Moisture Balance Results: total weight gain at 95% RH [1]: <0.1% total weight gain at 95% RH
- XRPD Results after the moisture sorption/desorption experiment [1]: remained Form A
- form after stress, all conditions of Table 10 ([2]; various conditions (22-93% RH 3 d; 40° C. 11 d)): remained Form A
- stability of the forms (order, based on the solubility data) [3]: Form A >Form C >Form E
- AVERAGE SOLUBILITY ([3]; 25 °C, 30 min): 9.5 mg/mL
- AVERAGE SOLUBILITY ([3]; 25 °C, 60 min): 10.6 mg/mL
- AVERAGE SOLUBILITY ([3]; 40 °C, 30 min): 17.3 mg/mL
- AVERAGE SOLUBILITY ([3]; 40 °C, 60 min): 18.1 mg/mL
- solubility at 30 min ([3]; 50 °C, 30 min): 40.8 mg/mL (≈ 91.2 mM)
- solubility at 60 min ([3]; 50 °C, 60 min): 36.7 mg/mL (≈ 82 mM)
- XRPD of remaining solid after the solubility experiment (form conversion) [3]: conversion to another form did not occur
- relative solubility of the forms [3]: less soluble form; also recorded: least soluble
- XRPD Pattern after grinding ([4]; grind time 1 min): A, SS
- crystallinity upon grinding ([4]; ground for up to 5 minutes, mortar and pestle): loses some crystallinity
- solubility ([5]; N,N-dimethylformamide, organic solvent or mixture): 250 mg/mL (≈ 559 mM)
- solubility ([5]; acetone, organic solvent or mixture): 87 mg/mL (≈ 194 mM)
- solubility ([5]; acetonitrile, organic solvent or mixture): 72 mg/mL (≈ 161 mM)
- solubility ([5]; dichloromethane, organic solvent or mixture): 135 mg/mL (≈ 302 mM)
- solubility ([5]; diethyl ether, organic solvent or mixture): < 9 mg/mL
- solubility (in words) ([5]; diethyl other, hexanes, propanol and water): sparingly soluble
- solubility ([5]; dimethyl sulfoxide, organic solvent or mixture): 144 mg/mL (≈ 322 mM)
- solubility ([5]; ethanol, organic solvent or mixture): 9 mg/mL (≈ 20.1 mM)
- solubility ([5]; ethyl acetate, organic solvent or mixture): 21 mg/mL (≈ 46.9 mM)
- solubility ([5]; hexanes, organic solvent or mixture): < 9 mg/mL
- solubility ([5]; isopropanol, organic solvent or mixture): < 10 mg/mL
- solubility ([5]; methanol, organic solvent or mixture): 21 mg/mL (≈ 46.9 mM)
- solubility ([5]; propanol, organic solvent or mixture): < 9 mg/mL
- solubility ([5]; toluene, organic solvent or mixture): 19 mg/mL (≈ 42.5 mM)
- solubility ([5]; water): < 8 mg/mL

SMILES: CC(=O)c1cc(C)cc(C)c1NC(=O)c1sccc1S(=O)(=O)Nc1onc(C)c1C [C vs. E]
- XRPD Results after slurry ([6]; toluene, 45° C., 5 days): A + C

SMILES: CC(=O)c1cc(C)cc(C)c1NC(=O)c1sccc1S(=O)(=O)Nc1onc(C)c1C [Form E, N-(2-acetyl-4,6-dimethylphenyl)-3-{[(3,4dimethyl-5-isoxazolyl)-amino]sulfonyl}-2-thiophenecarboxamide]
- hygroscopicity (based on moisture sorption/desorption data) [1]: non-hygroscopic
- Moisture Balance Results: weight loss at 5% RH [1]: <0.1% weight loss at 5% RH,
- Moisture Balance Results: total weight gain at 95% RH [1]: 0.15% total weight gain at 95% RH
- XRPD Results after the moisture sorption/desorption experiment [1]: remained Form E
- weight loss or gain during the moisture sorption/desorption experiment ([1]; whole experiment): < 0.2%
- solubility at 30 min (physchem; 27 °C): 12.7 mg/mL (≈ 28.4 mM)
- solubility at 60 min (physchem; 27 °C): 11 mg/mL (≈ 24.6 mM)
- solubility at 30 min (physchem; 35 °C): 17.7 mg/mL (≈ 39.5 mM)
- solubility at 60 min (physchem; 35 °C): 18.3 mg/mL (≈ 40.9 mM)
- solubility at 30 min (physchem; 50 °C): 40.8 mg/mL (≈ 91.2 mM)
- solubility at 60 min (physchem; 50 °C): 39.7 mg/mL (≈ 88.7 mM)

SMILES: CC(=O)c1cc(C)cc(C)c1NC(=O)c1sccc1S(=O)(=O)Nc1onc(C)c1C [A(PO)]
- XRPD Pattern after grinding ([4]; grind time 2 min): C + E

SMILES: CC(=O)c1cc(C)cc(C)c1NC(=O)c1sccc1S(=O)(=O)Nc1onc(C)c1C [Form C, N-(2-acetyl-4,6-dimethylphenyl)-3-{[(3,4dimethyl-5-isoxazolyl)-amino]sulfonyl}-2-thiophenecarboxamide]
- hygroscopicity (based on moisture sorption/desorption data) [1]: non-hygroscopic
- Moisture Balance Results: weight loss at 5% RH [1]: <0.1% weight loss at 5% RH,
- Moisture Balance Results: total weight gain at 95% RH [1]: <0.1% total weight gain at 95% RH
- XRPD Results after the moisture sorption/desorption experiment [1]: remained Form C
- stability of the forms (order, based on the solubility data) [3]: Form A >Form C >Form E
- solubility at 30 min ([3]; 25 °C, 30 min): 16.1 mg/mL (≈ 36 mM)
- solubility at 60 min ([3]; 25 °C, 60 min): 13.2 mg/mL (≈ 29.5 mM)
- solubility at 30 min ([3]; 40 °C, 30 min): 28.3 mg/mL (≈ 63.2 mM)
- solubility at 60 min ([3]; 40 °C, 60 min): 27.4 mg/mL (≈ 61.2 mM)
- AVERAGE SOLUBILITY ([3]; 50 °C, 30 min): 35.6 mg/mL
- AVERAGE SOLUBILITY ([3]; 50 °C, 60 min): 45.1 mg/mL
- XRPD of remaining solid after the solubility experiment (form conversion) [3]: did not change form; also recorded: did not convert
- relative solubility of the forms [3]: higher solubility than Form A
- XRPD Pattern after grinding ([4]; grind time 2 min): remained Form C
- XRPD Results after slurry ([6]; ethanol, 16 days): remained the same form

SMILES: CC(=O)c1cc(C)cc(C)c1NC(=O)c1sccc1S(=O)(=O)Nc1onc(C)c1C [A vs. E]
- XRPD Results after slurry ([6]; ethanol, 20 days): A + E(min)
- XRPD Results after slurry ([6]; ethanol, 27 days): A + pk 4°
- XRPD Results after slurry ([6]; toluene RT, 20 days): A, SS
- XRPD Results after slurry ([6]; toluene, 45° C., 5 days): A(PO)

SMILES: CC(=O)c1cc(C)cc(C)c1NC(=O)c1sccc1S(=O)(=O)Nc1onc(C)c1C [A vs. C]
- XRPD Results after slurry ([6]; 1:1 methanol:water, 12 days): A + C, SS
- XRPD Results after slurry ([6]; toluene RT, 12 days): A + C
- XRPD Results after slurry ([6]; toluene, 45° C., 5 days): A + C

SMILES: CC(=O)c1cc(C)cc(C)c1NC(=O)c1sccc1S(=O)(=O)Nc1onc(C)c1C [amorphous, N-(2-acetyl-4,6-dimethylphenyl)-3-{[(3,4dimethyl-5-isoxazolyl)-amino]sulfonyl}-2-thiophenecarboxamide]
- Moisture Balance Results: weight loss at 5% RH [1]: <0.1% weight loss at 5% RH,
- XRPD Results after the moisture sorption/desorption experiment [1]: remained amorphous; also recorded: does not recrystallize
- XRPD Pattern after stress ([2]; 40° C., 36 d): amorphous
- XRPD Pattern after stress ([2]; 70° C., 4 d): a mixture of Forms E and C
- XRPD Pattern after stress ([2]; ambient, 92 d (approx. 3 months)): Forms C and E
